Results taken from paper PMC3776780, “Dual p38/JNK Mitogen Activated Protein Kinase Inhibitors Prevent Ozone-Induced Airway Hyperreactivity in Guinea Pigs” (PLoS ONE, 2013).
Where two headings read alike, the source gives them in different places.

How the values were obtained:
[1] = system: ozone-induced airway hyperreactivity mediated by the vagus nerves; assay: vagally induced bronchoconstriction (airway hyperreactivity); assay type: in vivo, guinea pigs; conditions: ozone-exposed, 30 mg/kg ip 1 h before ozone, one day post-exposure, vagal stimulation 1–25 Hz
Protocol: (§1) Guinea pigs were exposed to 2 ppm ozone or filtered air for 4 hours as described previously. Physiological measurements, airway inflammation, and histological measurements were made one day after a single ozone exposure.
(§2) Animals were given 30 mg/kg intraperitoneally of the dual p38 and JNK MAPK inhibitors V-05-013, V-05-014, or V-05-015 (Vertex Pharmaceuticals, Cambridge, MA) one hour before ozone exposure (Figure 1). These compounds were chosen because of their overall kinase selectivity profile. […] Inhibitors were dissolved in 25% DMSO in phosphate buffered saline (PBS). Air exposed control animals were given 25% DMSO in PBS one hour before ozone exposure.
(§3) Physiological measurements were made as previously described. The jugular veins were cannulated for intravenous administration of drugs and the right carotid artery was cannulated to measure heart rate and blood pressure. Both vagus nerves were cut and distal ends placed on platinum electrodes submerged in liquid paraffin. Animals were tracheostomized, ventilated (1 ml/100 g body weight, 100 breaths per minute) and paralyzed with a constant infusion of succinylcholine (10 µg/kg/min iv, Sigma-Aldrich). Pulmonary inflation pressure was measured at the trachea and bronchoconstriction was measured as the increase in pressure over basal inflation pressure produced by the ventilator.
(§4) Electrical stimulation of both vagus nerves (10V, 0.2 ms pulse width, 1–25 Hz, 5 sec duration at 1 minute intervals) produced frequency dependent bronchoconstriction and bradycardia due to release of acetylcholine onto muscarinic receptors.

ERK2 = ERK2 (Homo sapiens, UniProt P28482); assay: spectrophotometric coupled-enzyme kinase inhibition assay; assay type: biochemical; conditions: read-out: Ki or IC50 ERK2
Chain of ERK2 (P28482 whole entry, species assumed): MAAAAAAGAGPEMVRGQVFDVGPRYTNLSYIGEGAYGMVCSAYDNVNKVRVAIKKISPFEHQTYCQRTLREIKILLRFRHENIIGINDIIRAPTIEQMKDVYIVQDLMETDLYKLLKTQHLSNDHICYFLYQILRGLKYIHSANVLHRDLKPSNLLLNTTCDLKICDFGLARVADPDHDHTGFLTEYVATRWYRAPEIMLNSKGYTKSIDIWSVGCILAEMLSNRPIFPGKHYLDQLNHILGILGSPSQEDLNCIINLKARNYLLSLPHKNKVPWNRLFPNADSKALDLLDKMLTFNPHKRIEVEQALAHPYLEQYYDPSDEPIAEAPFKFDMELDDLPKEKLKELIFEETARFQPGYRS
Protocol: (§5) Affinity was measured using a kinase inhibition assay. Compounds were assayed for the inhibition of various kinases using a modification of a spectrophotometric coupled-enzyme assay. In this assay, a fixed concentration of activated kinase (10–40 nM) was incubated with various concentrations of a potential inhibitor dissolved in DMSO for 10 minutes at 30°C in a buffer containing 0.1 M HEPES, pH 7.5, containing 10 mM MgCl2, 2.5 mM phosphoenolpyruvate, 200 µM NADH, 2 mM DTT, 30 µg/mL pyruvate kinase, 10 µg/mL lactate dehydrogenase, and 200 µM–500 µM EGF receptor peptide. The EGF receptor peptide has the sequence […]. The reaction was initiated by the addition of ATP equal to the ATP Km of the kinase, and the assay plate is inserted into the spectrophotometer’s assay plate compartment that was maintained at 30°C. The decrease of absorbance at 340 nm was monitored as a function of time for 10 minutes. The rate data as a function of inhibitor concentration was either fit as an IC50 or to a competitive inhibition kinetic model to determine the compound Ki (see table 1).

PKA = PKA (Homo sapiens, UniProt P17612); assay: as above; assay type: biochemical; conditions: read-out: Ki or IC50 PKA
Protocol: as §5

AKT3 = AKT3 (Homo sapiens, UniProt Q9Y243); assay: as above; assay type: biochemical; conditions: read-out: Ki or IC50 AKT3
Chain of AKT3 (Q9Y243 whole entry, species assumed): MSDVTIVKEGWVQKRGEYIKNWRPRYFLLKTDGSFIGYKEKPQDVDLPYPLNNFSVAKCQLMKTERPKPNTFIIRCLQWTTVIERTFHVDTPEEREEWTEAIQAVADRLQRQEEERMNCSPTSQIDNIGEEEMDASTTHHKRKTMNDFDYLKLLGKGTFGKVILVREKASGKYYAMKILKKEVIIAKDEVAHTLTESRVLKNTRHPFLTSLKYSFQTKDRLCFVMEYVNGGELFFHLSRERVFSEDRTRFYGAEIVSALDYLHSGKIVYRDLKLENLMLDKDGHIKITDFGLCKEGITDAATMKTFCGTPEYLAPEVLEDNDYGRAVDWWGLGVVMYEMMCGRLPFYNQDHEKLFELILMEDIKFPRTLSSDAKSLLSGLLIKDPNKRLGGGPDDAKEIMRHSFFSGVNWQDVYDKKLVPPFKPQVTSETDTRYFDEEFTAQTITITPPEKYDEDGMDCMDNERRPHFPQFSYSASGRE
Protocol: as §5

JNK1 = JNK1 (Homo sapiens, UniProt P45983); assay: as above; assay type: biochemical; conditions: ATP equal to Km, 30°C
Chain of JNK1 (P45983 whole entry, species assumed): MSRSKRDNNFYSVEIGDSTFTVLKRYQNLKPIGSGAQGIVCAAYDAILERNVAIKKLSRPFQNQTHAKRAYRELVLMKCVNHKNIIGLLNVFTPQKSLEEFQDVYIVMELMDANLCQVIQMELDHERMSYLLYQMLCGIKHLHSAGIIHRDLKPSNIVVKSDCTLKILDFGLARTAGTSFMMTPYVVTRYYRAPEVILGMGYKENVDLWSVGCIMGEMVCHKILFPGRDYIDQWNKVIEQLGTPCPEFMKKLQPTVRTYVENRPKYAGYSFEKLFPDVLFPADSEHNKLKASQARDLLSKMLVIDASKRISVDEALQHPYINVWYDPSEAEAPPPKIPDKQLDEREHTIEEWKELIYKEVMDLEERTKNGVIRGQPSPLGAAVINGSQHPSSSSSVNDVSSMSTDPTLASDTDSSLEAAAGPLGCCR
Protocol: as §5

cMET = cMET (Homo sapiens, UniProt P08581); assay: as above; assay type: biochemical; conditions: read-out: Ki or IC50 cMET
Chain of cMET (P08581 25-1390): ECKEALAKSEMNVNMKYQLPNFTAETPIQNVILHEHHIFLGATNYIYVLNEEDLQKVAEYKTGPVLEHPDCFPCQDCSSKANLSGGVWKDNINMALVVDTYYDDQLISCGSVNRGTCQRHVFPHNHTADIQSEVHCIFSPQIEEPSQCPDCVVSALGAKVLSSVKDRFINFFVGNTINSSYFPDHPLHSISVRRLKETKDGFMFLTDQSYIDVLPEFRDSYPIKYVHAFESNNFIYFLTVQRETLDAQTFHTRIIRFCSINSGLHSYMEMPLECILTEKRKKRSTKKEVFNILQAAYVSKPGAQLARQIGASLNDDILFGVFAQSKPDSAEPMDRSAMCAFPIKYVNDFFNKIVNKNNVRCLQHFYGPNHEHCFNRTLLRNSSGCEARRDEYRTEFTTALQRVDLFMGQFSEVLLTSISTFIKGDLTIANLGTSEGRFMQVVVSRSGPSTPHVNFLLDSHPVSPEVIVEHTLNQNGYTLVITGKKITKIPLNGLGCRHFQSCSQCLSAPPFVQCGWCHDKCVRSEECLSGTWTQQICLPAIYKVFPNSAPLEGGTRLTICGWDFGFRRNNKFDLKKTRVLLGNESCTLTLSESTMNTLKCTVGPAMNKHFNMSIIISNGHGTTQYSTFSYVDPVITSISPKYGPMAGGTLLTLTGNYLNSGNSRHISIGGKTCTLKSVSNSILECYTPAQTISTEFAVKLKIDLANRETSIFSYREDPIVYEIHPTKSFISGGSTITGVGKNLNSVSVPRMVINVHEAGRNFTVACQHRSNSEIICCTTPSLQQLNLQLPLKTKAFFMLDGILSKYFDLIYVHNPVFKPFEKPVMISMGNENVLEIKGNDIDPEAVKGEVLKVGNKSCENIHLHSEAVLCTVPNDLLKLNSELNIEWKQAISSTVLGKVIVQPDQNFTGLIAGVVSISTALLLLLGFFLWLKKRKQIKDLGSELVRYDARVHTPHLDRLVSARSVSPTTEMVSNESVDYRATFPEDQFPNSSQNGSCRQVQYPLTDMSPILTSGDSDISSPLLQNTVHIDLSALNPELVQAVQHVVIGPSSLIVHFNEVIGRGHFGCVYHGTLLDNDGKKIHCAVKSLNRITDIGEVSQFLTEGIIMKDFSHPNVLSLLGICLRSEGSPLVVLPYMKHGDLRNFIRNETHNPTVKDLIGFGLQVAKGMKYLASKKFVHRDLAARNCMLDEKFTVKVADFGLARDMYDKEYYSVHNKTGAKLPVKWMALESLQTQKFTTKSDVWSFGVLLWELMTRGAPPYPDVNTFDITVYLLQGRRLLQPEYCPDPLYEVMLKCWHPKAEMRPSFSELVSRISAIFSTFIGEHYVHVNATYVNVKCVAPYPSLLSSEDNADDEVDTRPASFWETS
Protocol: as §5

AurA = target: T1, AurA (Homo sapiens, UniProt O14965); assay: as above; assay type: biochemical; conditions: read-out: Ki or IC50 AurA
T1 sequence (O14965 1-403): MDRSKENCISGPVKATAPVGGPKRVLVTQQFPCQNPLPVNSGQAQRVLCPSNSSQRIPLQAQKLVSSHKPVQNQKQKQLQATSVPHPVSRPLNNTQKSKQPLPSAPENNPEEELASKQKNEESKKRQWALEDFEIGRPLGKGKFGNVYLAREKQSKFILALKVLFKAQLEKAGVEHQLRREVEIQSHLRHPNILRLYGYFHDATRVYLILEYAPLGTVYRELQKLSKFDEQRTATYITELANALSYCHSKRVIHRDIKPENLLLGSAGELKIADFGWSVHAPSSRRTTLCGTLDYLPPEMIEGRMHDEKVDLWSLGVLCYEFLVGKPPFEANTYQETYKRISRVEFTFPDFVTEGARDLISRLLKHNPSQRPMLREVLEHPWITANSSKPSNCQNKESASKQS
Protocol: as §5

GSK3β = GSK3β (Homo sapiens, UniProt P49841); assay: as above; assay type: biochemical
Chain of GSK3β (P49841 whole entry, species assumed): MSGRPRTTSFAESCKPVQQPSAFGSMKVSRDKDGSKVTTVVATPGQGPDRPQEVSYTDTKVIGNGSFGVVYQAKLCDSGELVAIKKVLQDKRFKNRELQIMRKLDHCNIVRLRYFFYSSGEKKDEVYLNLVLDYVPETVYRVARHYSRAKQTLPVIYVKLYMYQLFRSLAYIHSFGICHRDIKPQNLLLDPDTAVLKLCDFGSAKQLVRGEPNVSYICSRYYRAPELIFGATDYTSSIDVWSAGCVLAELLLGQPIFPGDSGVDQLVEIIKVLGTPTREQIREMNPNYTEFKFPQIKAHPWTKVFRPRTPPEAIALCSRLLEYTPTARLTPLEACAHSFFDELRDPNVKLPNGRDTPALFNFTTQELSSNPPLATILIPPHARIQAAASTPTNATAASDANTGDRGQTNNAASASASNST
Protocol: as §5

JNK2 = JNK2 (Homo sapiens, UniProt P45984); assay: as above; assay type: biochemical; conditions: ATP equal to Km, 30°C
Chain of JNK2 (P45984 whole entry, species assumed): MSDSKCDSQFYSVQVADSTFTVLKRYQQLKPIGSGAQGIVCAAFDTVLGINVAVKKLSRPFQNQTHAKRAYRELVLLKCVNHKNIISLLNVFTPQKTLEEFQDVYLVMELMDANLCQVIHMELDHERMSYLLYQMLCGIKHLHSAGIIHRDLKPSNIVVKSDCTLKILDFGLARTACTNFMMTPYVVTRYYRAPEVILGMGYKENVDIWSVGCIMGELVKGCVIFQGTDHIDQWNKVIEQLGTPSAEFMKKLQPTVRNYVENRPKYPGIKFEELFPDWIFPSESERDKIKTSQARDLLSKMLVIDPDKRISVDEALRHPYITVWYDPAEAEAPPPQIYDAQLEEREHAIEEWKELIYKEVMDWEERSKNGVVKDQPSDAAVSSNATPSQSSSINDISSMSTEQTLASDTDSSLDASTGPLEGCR
Protocol: as §5

SRC = SRC (Homo sapiens, UniProt P12931); assay: as above; assay type: biochemical; conditions: read-out: Ki or IC50 SRC
Chain of SRC (P12931 whole entry, species assumed): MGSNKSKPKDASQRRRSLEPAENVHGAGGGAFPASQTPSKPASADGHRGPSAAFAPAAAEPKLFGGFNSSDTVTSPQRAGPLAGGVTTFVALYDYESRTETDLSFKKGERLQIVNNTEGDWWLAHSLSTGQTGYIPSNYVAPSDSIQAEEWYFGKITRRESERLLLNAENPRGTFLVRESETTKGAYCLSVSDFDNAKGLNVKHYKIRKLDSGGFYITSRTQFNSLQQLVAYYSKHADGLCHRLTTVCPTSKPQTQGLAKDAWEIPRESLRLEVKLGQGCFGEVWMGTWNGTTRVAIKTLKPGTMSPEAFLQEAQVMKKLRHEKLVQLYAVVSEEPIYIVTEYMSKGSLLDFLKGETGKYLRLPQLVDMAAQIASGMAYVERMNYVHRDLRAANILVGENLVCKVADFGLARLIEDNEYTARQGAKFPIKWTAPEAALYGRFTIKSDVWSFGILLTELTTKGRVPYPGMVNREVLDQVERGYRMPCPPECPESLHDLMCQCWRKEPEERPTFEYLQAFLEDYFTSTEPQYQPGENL
Protocol: as §5

[2] = system: vagally mediated falls in heart rate; assay: falls in heart rate in response to vagal stimulation; assay type: in vivo, guinea pigs; conditions: ozone-exposed, 30 mg/kg ip 1 h before ozone
Protocol: as §1, §2, §3, §4

[3] = system: neuronal M2 muscarinic receptors; assay: neuronal M2 muscarinic receptor function (gallamine potentiation of vagally induced bronchoconstriction); assay type: in vivo, guinea pigs; conditions: ozone-exposed, 30 mg/kg ip 1 h before ozone, gallamine 0.1–10 mg/kg iv
Protocol: as §1, §2
Recovery from administration of intravenous acetylcholine was confirmed by pulmonary inflation pressure and heart rate returning to baseline before measuring M2 muscarinic receptor function (5–10 minutes after the last dose of acetylcholine).

[4] = system: M3 muscarinic receptor function on airway smooth muscle; assay: smooth muscle M3 muscarinic receptor function (bronchoconstriction to intravenous acetylcholine); assay type: in vivo, guinea pigs; conditions: acetylcholine 1–10 µg/kg iv; for effect on ozone-induced potentiation of bronchoconstriction to intravenous acetylcholine: ozone-exposed, 30 mg/kg ip 1 h before ozone
Protocol: as §1, §2
Recovery from vagal stimulation was confirmed by pulmonary inflation pressure and heart rate returning to baseline before measuring smooth muscle M3 muscarinic receptor function (5–10 minutes after cessation of vagal stimulation). In vagotomized guinea pigs, M3 muscarinic receptor function on airway smooth muscle was tested by measuring bronchoconstriction after administration of acetylcholine (1–10 µg/kg iv, Sigma-Aldrich).

SMILES | effect on ozone-induced potentiation of vagally induced bronchoconstriction [1] | Ki (ERK2) | Ki (PKA) | Ki (AKT3) | Ki (JNK1) | Ki (cMET) | Ki (AurA) | Ki (GSK3β; read-out: GSK3β Ki) | Ki (JNK2) | Ki (SRC) | effect on ozone-induced potentiation of vagally mediated falls in heart rate [2] | effect on ozone-induced M2 receptor dysfunction [3] | effect on ozone-induced potentiation of bronchoconstriction to intravenous acetylcholine [4] | Ki (GSK3β; read-out: Ki or IC50 GSK3β) | bronchoconstriction in response to intravenous acetylcholine ([4]; air-exposed, 30 mg/kg ip)
OC1CCN(Cc2onc(-c3ccc(F)cc3)c2-c2ccnc(NC3CCCCC3)n2)CC1 [V-05-013] | completely prevented ozone-induced airway hyperreactivity | > 1000 nM | > 1000 nM | > 1000 nM | 170 nM | > 1000 nM | > 1000 nM | 730 nM | 10 nM | > 1000 nM | prevented the ozone-induced potentiation of frequency induced falls in heart rate | partially prevented M2 receptor dysfunction | not blocked | – | –
OC[C@@H]1CCCN1Cc1onc(-c2ccc(F)cc2)c1-c1ccnc(NC2CCCCC2)n1 [V-05-014] | completely prevented ozone-induced airway hyperreactivity | > 1000 nM | > 1000 nM | > 1000 nM | 300 nM | > 1000 nM | > 1000 nM | – | 15 nM | > 1000 nM | prevented the ozone-induced potentiation of frequency induced falls in heart rate | completely protected M2 receptor function | not blocked | > 1000 nM | –
Fc1ccc(-c2noc(CN3CCCCC3)c2-c2ccnc(NC3CCCCC3)n2)cc1 [V-05-015] | completely prevented ozone-induced airway hyperreactivity | > 1000 nM | > 1000 nM | > 1000 nM | 120 nM | > 1000 nM | > 1000 nM | – | 4 nM | > 1000 nM | prevented the ozone-induced potentiation of frequency induced falls in heart rate | completely protected M2 receptor function | attenuated ozone-induced smooth muscle hyperreactivity | > 1000 nM | hyperreactive to intravenous acetylcholine
